Values of other authors, collected in patent publication US20070148205A1, “Prevention of Arterial Restenosis with Active Vitamin D Compounds” (priority 2004, published 2007).

Details: in vivo

Hypercalcemic effect compared to calcitriol, in words: reduced hypercalcemic effect
Structure (SMILES): C=C1/C(=C\C=C2/CCC[C@]3(C)C([C@H](C)CC#CC(C)(C)O)=CC[C@@H]23)C[C@@H](O)C[C@@H]1O [Ro23-7553]
